Measurements reported in patent publication US7294642B2, “1,3-Diamino-2-hydroxypropane pro-drug derivatives” (Elan Pharmaceuticals, Inc., priority 2002, dated 2007).

Assay: Acyl group migration (rearrangement) of pro-drug in DMSO-d6/buffer solution monitored by 19F-NMR
Format: physicochemical
Experimental: A compound of formula (I) OR (X) (5 mg) is dissolved in DMSO-d6 (500 μL) and either pH 4 buffer solution (500 μL, potassium hydrogen phthalate buffer) or pH 7 buffer solution (500 μL, sodium and potassium phosphate buffer) is added. The sample is then heated to 40° C. The O-acyl or N-acyl to N-terminal N-acyl migration is monitored by observing the change in chemical shift for the aromatic fluorines using ^19F-NMR. (Fluorine shifts associated with the desired migration were confirmed by spiking with authentic analogue). The sample is analyzed by ^19F-NMR at approxiamately 0, 1.5, 3, 24, 48, and 144 hours. The amount of O-acyl pro-drug, N-acyl pro-drug, and desired migration product at each time point are assigned by integrating the corresponding NMR signal.
N˜1˜-[(2R,3S)-3-amino-4-(3,5-difluorophenyl)-2-hydroxybutyl]-5-(1,3-oxazol-2-yl)-N˜3˜,N˜3˜-dipropyl-N˜1˜-[3-(trifluoromethyl)benzyl]isophthalamide hydrochloride (PREPARATION 7, 5 mg) is dissolved in DMSO-d6 (500 μL) and pH 4 buffer solution (500 μL, potassium hydrogen phthalate buffer) is added. The sample is then heated to 40° C. The N-acyl to N-terminal N-acyl migration is monitored by observing the change in chemical shift for the aromatic fluorines using ^19F-NMR. (Fluorine shifts for the desired migration product in the presence of buffer was confirmed by spiking with authentic migration product, N^1-((1S,2R)-1-(3,5-difluorobenzyl)-2-hydroxy-3-{[3-(trifluoromethyl)benzyl]amino}propyl)-5-(1,3-oxazol-2-yl)-N^3,N^3-dipropylisophthalamide.) NMR data is collected at 0, 1, 3, 25, 48, 96, and 144 hours. The amount of N-acyl pro-drug and desired migration product present at each time point is assigned by integrating the corresponding NMR signal.
The following examples illustrate the solution acyl group migration of compounds of the formulae (I) and (X) as observed by ^19F NMR spectroscopy. Data were collected as described in Example 1, above.

Row | SMILES | HEA product (% present) (pH 4, 40° C., time 0 hr) | N-acyl prodrug (% present) (pH 4, 40° C., time 0 hr) | O-acyl pro-drug (% present) (pH 4, 40° C., time 0 hr) | HEA product (% present) (pH 4, 40° C., time 1 hr) | N-acyl prodrug (% present) (pH 4, 40° C., time 1 hr) | O-acyl pro-drug (% present) (pH 4, 40° C., time 1 hr) | HEA product (% present) (pH 4, 40° C., time 3 hr) | N-acyl prodrug (% present) (pH 4, 40° C., time 3 hr) | O-acyl pro-drug (% present) (pH 4, 40° C., time 3 hr) | HEA product (% present) (pH 4, 40° C., time 24 hr) | N-acyl prodrug (% present) (pH 4, 40° C., time 24 hr) | O-acyl pro-drug (% present) (pH 4, 40° C., time 24 hr) | HEA product (% present) (pH 4, 40° C., time 48 hr) | N-acyl prodrug (% present) (pH 4, 40° C., time 48 hr) | O-acyl pro-drug (% present) (pH 4, 40° C., time 48 hr) | HEA product (% present) (pH 7, 40° C., time 0 hr) | N-acyl prodrug (% present) (pH 7, 40° C., time 0 hr) | O-acyl pro-drug (% present) (pH 7, 40° C., time 0 hr) | HEA product (% present) (pH 7, 40° C., time 1 hr) | N-acyl prodrug (% present) (pH 7, 40° C., time 1 hr) | also measured
1 | CCCN(CCC)C(=O)c1cc(C(=O)N(Cc2cccc(C(F)(F)F)c2)C[C@@H](O)[C@@H](N)Cc2cc(F)cc(F)c2)cc(-c2ncco2)c1.Cl [Preparation 20, N^1-[(2R,3S)-3-amino-4-(3,5-difluorophenyl)-2-hydroxybutyl]-5-(1,3-oxazol-2-yl)-N^3,N^3-dipropyl-N^1-[3-(trifluoromethyl)benzyl]-isophthalamide hydrochloride] | 0% | 100% | 0% | 3% | 97% | 0% | 4% | 96% | 0% | 7% | 93% | 0% | 8% | 92% | 0% | 0% | 100% | 0% | 7% | 93% | HEA product (% present) (pH 4, 40° C., time 96 hr): 12%; N-acyl prodrug (% present) (pH 4, 40° C., time 96 hr): 88%; O-acyl pro-drug (% present) (pH 4, 40° C., time 96 hr): 0%; O-acyl pro-drug (% present) (pH 7, 40° C., time 1 hr): 0%; HEA product (% present) (pH 7, 40° C., time 3 hr): 12%; N-acyl prodrug (% present) (pH 7, 40° C., time 3 hr): 88%; O-acyl pro-drug (% present) (pH 7, 40° C., time 3 hr): 0%; HEA product (% present) (pH 7, 40° C., time 24 hr): 51%; N-acyl prodrug (% present) (pH 7, 40° C., time 24 hr): 49%; O-acyl pro-drug (% present) (pH 7, 40° C., time 24 hr): 0%; HEA product (% present) (pH 7, 40° C., time 48 hr): 73%; N-acyl prodrug (% present) (pH 7, 40° C., time 48 hr): 27%; O-acyl pro-drug (% present) (pH 7, 40° C., time 48 hr): 0%; HEA product (% present) (pH 7, 40° C., time 96 hr): 88%; N-acyl prodrug (% present) (pH 7, 40° C., time 96 hr): 12%; O-acyl pro-drug (% present) (pH 7, 40° C., time 96 hr): 0%
2 | C#Cc1cccc(C2(NC[C@@H](OC(=O)c3cc(C(=O)N(CCC)CCC)cc(-c4ncco4)c3)[C@@H](N)Cc3cc(F)cc(F)c3)CC2)c1 [Preparation 22, (1R,2S)-2-amino-3-(3,5-difluorophenyl)-1-({[1-(3-ethynylphenyl)cyclopropyl]amino}methyl)propyl 3-[(dipropylamino)carbonyl]-5-(1,3-oxazol-2-yl)benzoate] | 0% | 0% | 100% | 13% | 0% | 87% | 27% | 0% | 66% | 78% | 0% | 9% | 86% | 0% | 0% | 0% | 0% | 100% | 100% | 0% | HEA product (% present) (pH 4, 40° C., time 0.5 hr): 7%; N-acyl prodrug (% present) (pH 4, 40° C., time 0.5 hr): 0%; O-acyl pro-drug (% present) (pH 4, 40° C., time 0.5 hr): 93%; HEA product (% present) (pH 4, 40° C., time 6 hr): 42%; N-acyl prodrug (% present) (pH 4, 40° C., time 6 hr): 0%; O-acyl pro-drug (% present) (pH 4, 40° C., time 6 hr): 49%; HEA product (% present) (pH 7, 40° C., time 0.5 hr): 10%; N-acyl prodrug (% present) (pH 7, 40° C., time 0.5 hr): 0%; O-acyl pro-drug (% present) (pH 7, 40° C., time 0.5 hr): 10%; O-acyl pro-drug (% present) (pH 7, 40° C., time 1 hr): 0%
